Each structure is given as a SMILES string. pIC50: −log10 of the molar value.

For experiment [1], the target named is T1, CBP (Homo sapiens, UniProt Q92793).
T1 construct: endogenous in cells; host or cells: 22Rv1 (ATCC CRL-2505) human prostate cancer cells
The experiment in a line: CBP degradation in 22Rv1 cells (5 h). The note with it: 22Rv1 cells, 5 h; for Dmax: 22Rv1, 5 h, read-out: CBP Degradation (22Rv1, 5 h) DCmax. In kind it is cell-based. The source says:
(§1) Biological Assays. […] Cells with 3-8 passages after purchase were used in experiments.

In experiment [2] the target is T2, P300 (Homo sapiens, UniProt Q09472).
T2 construct: endogenous in cells; host or cells: 22Rv1 (ATCC CRL-2505) human prostate cancer cells
The experiment in a line: P300 degradation in 22Rv1 cells (5 h). Particulars: 22Rv1 cells, 5 h; for Dmax: read-out: P300 Degradation (22Rv1, 5 h) DCmax. In kind it is cell-based.
Excerpt: as §1

Experiment [3] concerns 22Rv1 cells. The experiment in a line: Cell growth inhibition assay (CellTiter-Glo) in 22Rv1. In kind it is cell-based, human. Particulars: Homo sapiens, 22Rv1, 96 h, 22Rv1 cells, 96 h incubation; read-out: Cell Growth Inhibition (IC50) 22Rv1. In a few lines:
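22Rv1 prostate cancer cells (passages 3-8, DMEM with 10% FBS) were seeded at 4000 cells/well with compound, 3-fold dilutions from 10 μM final. After 96 h at 37° C and 5% CO2, growth was read by CellTiter-Glo 2.0 luminescence.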
On the technique in general: In ATP-based viability assays light output follows the ATP content of the culture.

Experiment [4] relates to HL60. Put plainly: Cell growth inhibition in HL60. The experiment is classed as cell-based. Particulars: Homo sapiens, HL-60, HL60 cells; read-out: Cell Growth Inhibition (IC50) HL60.

T1 sequence (Q92793 whole entry): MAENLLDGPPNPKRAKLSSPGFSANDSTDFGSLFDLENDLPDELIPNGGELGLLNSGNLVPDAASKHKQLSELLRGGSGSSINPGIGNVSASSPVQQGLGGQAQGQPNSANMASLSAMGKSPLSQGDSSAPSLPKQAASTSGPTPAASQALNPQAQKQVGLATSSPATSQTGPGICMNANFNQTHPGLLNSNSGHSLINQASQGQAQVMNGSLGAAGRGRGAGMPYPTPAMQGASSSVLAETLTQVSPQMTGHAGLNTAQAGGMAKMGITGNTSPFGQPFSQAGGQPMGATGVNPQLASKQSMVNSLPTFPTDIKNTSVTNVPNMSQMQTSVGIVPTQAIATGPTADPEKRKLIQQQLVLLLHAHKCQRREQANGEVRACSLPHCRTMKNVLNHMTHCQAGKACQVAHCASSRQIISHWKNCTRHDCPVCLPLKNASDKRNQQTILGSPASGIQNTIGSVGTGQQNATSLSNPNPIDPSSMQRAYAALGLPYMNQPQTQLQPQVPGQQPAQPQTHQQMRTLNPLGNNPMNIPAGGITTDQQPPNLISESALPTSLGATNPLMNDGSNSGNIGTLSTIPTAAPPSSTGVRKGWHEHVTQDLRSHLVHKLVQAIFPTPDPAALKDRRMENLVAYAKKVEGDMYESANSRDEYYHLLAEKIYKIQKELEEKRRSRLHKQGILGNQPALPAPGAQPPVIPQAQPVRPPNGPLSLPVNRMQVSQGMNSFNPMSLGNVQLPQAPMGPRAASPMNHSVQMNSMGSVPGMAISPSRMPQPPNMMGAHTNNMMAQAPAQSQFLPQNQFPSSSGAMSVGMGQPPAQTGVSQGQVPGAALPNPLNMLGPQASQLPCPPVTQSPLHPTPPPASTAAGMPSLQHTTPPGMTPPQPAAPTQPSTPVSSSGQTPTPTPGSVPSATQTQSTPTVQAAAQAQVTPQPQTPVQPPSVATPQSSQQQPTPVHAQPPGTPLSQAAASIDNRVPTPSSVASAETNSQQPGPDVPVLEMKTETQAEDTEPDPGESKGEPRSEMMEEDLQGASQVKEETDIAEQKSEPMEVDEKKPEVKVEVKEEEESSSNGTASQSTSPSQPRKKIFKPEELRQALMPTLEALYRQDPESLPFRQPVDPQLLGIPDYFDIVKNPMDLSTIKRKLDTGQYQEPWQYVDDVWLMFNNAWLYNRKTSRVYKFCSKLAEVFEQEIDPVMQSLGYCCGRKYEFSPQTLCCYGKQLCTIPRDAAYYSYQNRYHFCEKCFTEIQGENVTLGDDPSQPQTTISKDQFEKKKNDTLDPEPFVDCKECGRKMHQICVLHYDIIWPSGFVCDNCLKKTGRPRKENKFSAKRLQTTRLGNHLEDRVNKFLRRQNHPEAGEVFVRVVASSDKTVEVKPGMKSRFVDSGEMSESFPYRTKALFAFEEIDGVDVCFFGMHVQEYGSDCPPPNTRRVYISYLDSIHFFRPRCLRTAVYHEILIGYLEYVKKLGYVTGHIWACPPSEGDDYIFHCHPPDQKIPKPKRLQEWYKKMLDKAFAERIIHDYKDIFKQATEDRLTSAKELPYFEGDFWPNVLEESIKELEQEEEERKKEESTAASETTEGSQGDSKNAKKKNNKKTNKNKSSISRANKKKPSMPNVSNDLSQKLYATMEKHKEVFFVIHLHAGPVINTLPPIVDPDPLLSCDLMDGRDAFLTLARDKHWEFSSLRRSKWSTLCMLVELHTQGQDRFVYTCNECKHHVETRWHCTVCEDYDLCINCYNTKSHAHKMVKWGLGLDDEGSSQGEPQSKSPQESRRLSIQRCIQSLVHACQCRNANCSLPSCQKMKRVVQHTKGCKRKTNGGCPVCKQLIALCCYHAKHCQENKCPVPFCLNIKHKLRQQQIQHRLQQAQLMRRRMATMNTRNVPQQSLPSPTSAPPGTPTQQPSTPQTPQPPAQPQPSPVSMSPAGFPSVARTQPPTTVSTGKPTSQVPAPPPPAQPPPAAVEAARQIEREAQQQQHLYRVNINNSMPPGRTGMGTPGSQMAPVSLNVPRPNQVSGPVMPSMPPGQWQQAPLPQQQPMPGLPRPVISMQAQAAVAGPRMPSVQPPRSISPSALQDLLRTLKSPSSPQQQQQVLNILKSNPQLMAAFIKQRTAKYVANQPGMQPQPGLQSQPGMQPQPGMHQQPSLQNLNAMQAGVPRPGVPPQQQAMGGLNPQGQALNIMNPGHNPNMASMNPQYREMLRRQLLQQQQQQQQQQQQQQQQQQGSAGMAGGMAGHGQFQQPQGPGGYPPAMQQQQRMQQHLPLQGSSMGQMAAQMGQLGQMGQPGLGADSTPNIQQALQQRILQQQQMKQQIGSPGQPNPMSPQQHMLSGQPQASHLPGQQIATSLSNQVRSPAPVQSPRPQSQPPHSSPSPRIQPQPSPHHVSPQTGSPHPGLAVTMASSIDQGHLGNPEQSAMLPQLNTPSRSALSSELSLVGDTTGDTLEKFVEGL
T2 sequence (Q09472 whole entry): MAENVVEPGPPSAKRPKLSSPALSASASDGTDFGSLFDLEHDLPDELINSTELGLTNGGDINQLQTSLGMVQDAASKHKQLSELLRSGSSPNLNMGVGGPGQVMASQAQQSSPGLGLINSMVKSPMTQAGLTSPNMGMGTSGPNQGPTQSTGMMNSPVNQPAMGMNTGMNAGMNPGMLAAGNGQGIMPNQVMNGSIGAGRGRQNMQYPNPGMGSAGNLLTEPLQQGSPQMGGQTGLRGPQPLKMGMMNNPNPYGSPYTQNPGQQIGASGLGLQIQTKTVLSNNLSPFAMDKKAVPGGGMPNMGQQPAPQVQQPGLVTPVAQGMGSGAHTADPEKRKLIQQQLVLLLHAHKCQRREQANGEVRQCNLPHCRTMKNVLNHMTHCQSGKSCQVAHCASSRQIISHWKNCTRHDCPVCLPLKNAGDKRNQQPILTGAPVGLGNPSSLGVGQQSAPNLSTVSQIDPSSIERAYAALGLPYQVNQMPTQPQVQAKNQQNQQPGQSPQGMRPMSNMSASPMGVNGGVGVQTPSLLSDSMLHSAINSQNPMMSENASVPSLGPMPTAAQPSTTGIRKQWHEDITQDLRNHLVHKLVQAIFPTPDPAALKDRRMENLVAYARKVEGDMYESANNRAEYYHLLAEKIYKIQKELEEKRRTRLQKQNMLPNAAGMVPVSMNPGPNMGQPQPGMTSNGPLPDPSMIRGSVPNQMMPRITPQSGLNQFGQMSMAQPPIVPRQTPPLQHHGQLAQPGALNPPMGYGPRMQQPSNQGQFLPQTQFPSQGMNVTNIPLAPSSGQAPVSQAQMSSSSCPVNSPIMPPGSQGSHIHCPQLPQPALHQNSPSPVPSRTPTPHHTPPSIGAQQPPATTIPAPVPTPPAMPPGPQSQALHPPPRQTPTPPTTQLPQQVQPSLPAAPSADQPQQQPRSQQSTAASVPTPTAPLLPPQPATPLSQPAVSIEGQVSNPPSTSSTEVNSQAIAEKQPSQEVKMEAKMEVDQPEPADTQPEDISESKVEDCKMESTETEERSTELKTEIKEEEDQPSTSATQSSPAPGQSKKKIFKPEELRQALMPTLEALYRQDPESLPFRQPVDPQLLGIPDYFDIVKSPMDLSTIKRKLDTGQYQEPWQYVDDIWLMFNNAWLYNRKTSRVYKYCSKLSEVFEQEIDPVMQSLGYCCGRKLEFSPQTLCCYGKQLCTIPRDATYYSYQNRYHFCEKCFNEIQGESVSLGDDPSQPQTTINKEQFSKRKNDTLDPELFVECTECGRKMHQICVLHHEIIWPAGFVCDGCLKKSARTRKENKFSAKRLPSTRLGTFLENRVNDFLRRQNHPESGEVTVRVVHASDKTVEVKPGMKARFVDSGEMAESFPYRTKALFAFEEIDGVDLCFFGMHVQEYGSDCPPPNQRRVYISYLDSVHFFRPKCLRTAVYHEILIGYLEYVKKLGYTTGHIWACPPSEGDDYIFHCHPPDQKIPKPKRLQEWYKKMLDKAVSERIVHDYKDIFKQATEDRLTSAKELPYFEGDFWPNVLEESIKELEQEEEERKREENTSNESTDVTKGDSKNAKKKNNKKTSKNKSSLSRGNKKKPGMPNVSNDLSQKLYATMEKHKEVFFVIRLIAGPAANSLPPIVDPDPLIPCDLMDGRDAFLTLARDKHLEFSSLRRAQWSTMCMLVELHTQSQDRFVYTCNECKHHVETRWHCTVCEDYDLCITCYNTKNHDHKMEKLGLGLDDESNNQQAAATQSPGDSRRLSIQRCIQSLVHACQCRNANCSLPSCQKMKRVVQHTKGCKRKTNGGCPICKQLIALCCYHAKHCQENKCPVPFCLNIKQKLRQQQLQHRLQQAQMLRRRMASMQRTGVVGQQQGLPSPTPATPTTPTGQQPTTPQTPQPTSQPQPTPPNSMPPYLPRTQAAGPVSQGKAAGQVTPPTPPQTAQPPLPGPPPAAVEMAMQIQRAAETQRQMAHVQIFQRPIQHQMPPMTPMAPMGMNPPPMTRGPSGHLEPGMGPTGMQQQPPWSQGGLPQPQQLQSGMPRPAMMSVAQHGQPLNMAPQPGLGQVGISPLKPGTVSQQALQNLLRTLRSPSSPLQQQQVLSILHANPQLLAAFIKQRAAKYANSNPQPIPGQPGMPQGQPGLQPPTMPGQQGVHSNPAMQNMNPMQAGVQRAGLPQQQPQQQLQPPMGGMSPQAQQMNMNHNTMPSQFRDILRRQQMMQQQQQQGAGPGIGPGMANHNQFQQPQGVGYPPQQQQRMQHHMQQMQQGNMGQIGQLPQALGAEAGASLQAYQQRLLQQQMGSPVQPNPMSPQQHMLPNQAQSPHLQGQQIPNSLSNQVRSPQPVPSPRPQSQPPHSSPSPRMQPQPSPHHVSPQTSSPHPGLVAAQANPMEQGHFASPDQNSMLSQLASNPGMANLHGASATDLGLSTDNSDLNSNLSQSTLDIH

The DC50 is the concentration giving 50% degradation. A low value points to a more potent degrader. By pIC50 is commonly meant −log10 of the IC50, conventionally taken in molar units. Regarding `Cn1cc(-c2cc3c(cc2C(F)F)N(c2nn(C4CCN(C(=O)CN5Cc6cc7c(cc6C5)C(=O)N(C5CCC(=O)NC5=O)C7=O)CC4)c4c2CN(CC(F)(F)F)CC4)CCC3)cn1` (stereo not drawn), the Dmax in experiment [1] and in experiment [2] was less than 50% throughout. For the same compound, the results for the half-maximal degradation concentration (DC50) in experiment [1] and in experiment [2] were less than 1000 nM and greater than 1000 nM, respectively. Moreover, the pIC50 in experiment [3] was less than 5.00; in experiment [4], greater than 5.00.
Take `CC(=O)N1CCc2c(c(N3CCCc4cc(-c5cnn(C)c5)c(C(F)F)cc43)nn2[C@H]2CC[C@@H](CN3CCc4cc5c(cc4C3)C(=O)N(C3CCC(=O)NC3=O)C5=O)CC2)C1` (relative stereo) [CP-050, 6-((4-(5-acetyl-3-(7-(difluoromethyl)-6-(1-methyl-1H-pyrazol-4-yl)-3,4-dihydroquinolin-1(2H)-yl)-4,5,6,7-tetrahydro-1H-pyrazolo[4,3-c]pyridin-1-yl)cyclohexyl)methyl)-2-(2,6-dioxopiperidin-3-yl)-5,6,7,8-tetrahydro-1H-pyrrolo[3,4-g]isoquinoline-1,3(2H)-dione]: the Dmax in experiment [1] and in experiment [2] was greater than 90% throughout. The DC50 in experiment [1] and in experiment [2] was less than 10 nM throughout. Moreover, the pIC50 in experiment [3] and in experiment [4] was greater than 7.00 each time.
With `CC(=O)N1CCc2c(c(N3CCCc4cc(-c5cnn(C6CCN(C(=O)CN7Cc8cc9c(cc8C7)C(=O)N(C7CCC(=O)NC7=O)C9=O)CC6)c5)c(C(F)F)cc43)nn2C2CCOCC2)C1` (stereo not drawn) [CP-072, 6-(2-(4-(4-(1-(5-acetyl-1-(tetrahydro-2H-pyran-4-yl)-4,5,6,7-tetrahydro-1H-pyrazolo[4,3-c]pyridin-3-yl)-7-(difluoromethyl)-1,2,3,4-tetrahydroquinolin-6-yl)-1H-pyrazol-1-yl)piperidin-1-yl)-2-oxoethyl)-2-(2,6-dioxopiperidin-3-yl)-6,7-dihydropyrrolo[3,4-f]isoindole-1,3(2H,5H)-dione], the Dmax in experiment [1] is greater than 90%. In experiment [1], this compound registered a DC50 of less than 10 nM. Besides, the pIC50 in experiment [3] and in experiment [4] was greater than 7.00 throughout.
As to `CC(=O)N1CCc2c(c(N3CCCc4cc(-c5cnn(CCCN6Cc7cc8c(cc7C6)C(=O)N(C6CCC(=O)NC6=O)C8=O)c5)c(C(F)F)cc43)nn2C2CCOCC2)C1` (stereo not drawn) [CP-073, 6-(3-(4-(1-(5-acetyl-1-(tetrahydro-2H-pyran-4-yl)-4,5,6,7-tetrahydro-1H-pyrazolo[4,3-c]pyridin-3-yl)-7-(difluoromethyl)-1,2,3,4-tetrahydroquinolin-6-yl)-1H-pyrazol-1-yl)propyl)-2-(2,6-dioxopiepridin-3-yl)-6,7-dihydropyrrolo[3,4-f]isoindole-1,3(2H,5H)-dione], the Dmax in experiment [1] is greater than 70%. The same compound had a DC50 in experiment [1] of less than 10 nM. For the same compound, the negative-log IC50 (pIC50) in experiment [3] is greater than 5.00; in experiment [4], greater than 7.00.
Regarding `CC(=O)N1CCc2c(c(N3CCCc4cc(-c5cnn(CCCN6CCc7cc8c(cc7C6)C(=O)N(C6CCC(=O)NC6=O)C8=O)c5)c(C(F)F)cc43)nn2C2CCOCC2)C1` (stereo not drawn) [CP-074, 6-(3-(4-(1-(5-acetyl-1-(tetrahydro-2H-pyran-4-yl)-4,5,6,7-tetrahydro-1H-pyrazolo[4,3-c]pyridin-3-yl)-7-(difluoromethyl)-1,2,3,4-tetrahydroquinolin-6-y)-1H-pyrazol-1-yl)propyl)-2-(2,6-dioxopiperidin-3-yl)-5,6,7,8-tetrahydro-1H-pyrrolo[3,4-g]isoquinoline-1,3(2H)-dione], in experiment [1], the Dmax is less than 50% and the DC50 was greater than 1000 nM. Moreover, in experiment [3], the negative logarithm of the IC50 (pIC50) is greater than 5.00. The pIC50 in experiment [4] was greater than 7.00.

These data come from US20240150360A1 (THE REGENTS OF THE UNIVERSITY OF MICHIGAN, priority 2021, published 2024).
